Results on nine compounds are retold here after PubChem BioAssay (NCI).

Molecules are shown by their SMILES.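 Exposure lasted 48 hours, with cells grown in 96-well plates and compounds tested at five concentrations. TGI denotes the concentration required for complete inhibition of growth.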 Bounds are passed on as bounds.

Among the test systems are 786-0 renal; CAKI-1 renal; CCRF-CEM leukemia; K-562 leukemia; KM12 colon; MALME-3M melanoma; NCI-H460 lung; OVCAR-5 ovarian; SF-295 CNS; SF-539 CNS; SK-MEL-2 melanoma; SN12C renal; U251 CNS; UO-31 renal; DU-145 prostate; NCI/ADR-RES ovarian; PC-3 prostate; T-47D breast; RXF 393 renal.
Holding throughout (assay): DTP human tumour cell line panel, 48 h

By TGI is commonly meant the concentration giving total growth inhibition. Take `CN(C(=O)C12C3C4C1C1C4(C(=O)C45C6C7C4C4C5C6C74C)C3C12C)C(C)(C)C` (stereo not given): the TGI in the assay on 786-0 renal, in the assay with CAKI-1 renal, in the assay on CCRF-CEM leukemia, in the assay with K-562 leukemia, in the assay with KM12 colon and in the assay with MALME-3M melanoma was over 100 µM in each case. Also, the TGI in the assay on NCI-H460 lung, with OVCAR-5 ovarian, in the assay with SF-295 CNS, in the assay on SF-539 CNS, with SK-MEL-2 melanoma and in the assay on SN12C renal was over 100 µM throughout. The TGI in the assay on U251 CNS and in the assay on UO-31 renal was over 100 µM each time.

On to `O=S1CCS(=O)CCS(=O)CC1` (stereo not given), for which the TGI with 786-0 renal, in the assay on CCRF-CEM leukemia, in the assay with DU-145 prostate, in the assay with K-562 leukemia, in the assay on KM12 colon and in the assay on NCI-H460 lung was over 100 µM in each case. For the same compound, the TGI in the assay on NCI/ADR-RES ovarian, with OVCAR-5 ovarian, in the assay with PC-3 prostate, in the assay on SF-295 CNS, in the assay on SF-539 CNS and in the assay with SN12C renal was over 100 µM throughout. In addition, the TGI in the assay with T-47D breast, with U251 CNS and in the assay with UO-31 renal was over 100 µM in each case.

Regarding `COc1ccc2nc3ccc(OC)cc3c(SCc3ccc([N+](=O)[O-])cc3)c2c1`, the TGI in the assay with 786-0 renal, with CAKI-1 renal, in the assay with CCRF-CEM leukemia, in the assay on DU-145 prostate, with K-562 leukemia and in the assay with KM12 colon was over 100 µM throughout. The TGI in the assay with MALME-3M melanoma, in the assay with NCI-H460 lung, with NCI/ADR-RES ovarian, with OVCAR-5 ovarian, with PC-3 prostate and with RXF 393 renal was over 100 µM in each case. For the same compound, the TGI with SF-295 CNS, with SF-539 CNS, with SK-MEL-2 melanoma, with SN12C renal, in the assay on T-47D breast and with UO-31 renal was over 100 µM each time.

Regarding `O=C1CCC(=O)N1Cc1ccccc1N=[N+]([O-])c1ccccc1CN1C(=O)CCC1=O`, the TGI with 786-0 renal, with CCRF-CEM leukemia, in the assay with K-562 leukemia, in the assay on KM12 colon, in the assay on MALME-3M melanoma and with NCI-H460 lung was over 100 µM each time. In addition, the TGI in the assay with OVCAR-5 ovarian, with RXF 393 renal, with SF-295 CNS, in the assay with SF-539 CNS, in the assay on SK-MEL-2 melanoma and in the assay on SN12C renal was over 100 µM throughout. The TGI in the assay on U251 CNS and with UO-31 renal was over 100 µM throughout.

As for `CCN=C(NNc1ccc([N+](=O)[O-])cc1)P(=O)(OC(C)C)OC(C)C`, the TGI with 786-0 renal, in the assay with CAKI-1 renal, in the assay with CCRF-CEM leukemia, with K-562 leukemia, with KM12 colon and with MALME-3M melanoma was over 100 µM throughout. Further, the TGI in the assay with NCI-H460 lung, with OVCAR-5 ovarian, with SF-539 CNS, with SK-MEL-2 melanoma, in the assay on SN12C renal and with U251 CNS was over 100 µM each time. The same compound registered a TGI in the assay on UO-31 renal of over 100 µM.

Consider `O=C(COc1ccc(OCC(=O)N2C(=O)CSC2=Nc2ccccc2)cc1)N1C(=O)CSC1=Nc1ccccc1`, for which the TGI was 63.2 µM with 786-0 renal; 47.7 µM in the assay with CAKI-1 renal; over 100 µM in the assay with DU-145 prostate; over 100 µM in the assay with K-562 leukemia; 44.3 µM in the assay on KM12 colon; 86.2 µM in the assay with MALME-3M melanoma. Moreover, the TGI in the assay on NCI-H460 lung is over 100 µM; in the assay with NCI/ADR-RES ovarian, over 100 µM; with OVCAR-5 ovarian it was 91.9 µM; with PC-3 prostate, over 100 µM; in the assay with RXF 393 renal it was over 100 µM; with SF-295 CNS, over 100 µM. The TGI in the assay on SK-MEL-2 melanoma, in the assay with SN12C renal, in the assay on U251 CNS and in the assay on UO-31 renal was over 100 µM in each case.

Regarding `COc1ccc(C(=O)Cc2c(C(=O)c3ccccc3)c3ccccc3n2C(=O)c2ccccc2)cc1`, the TGI with 786-0 renal, with CAKI-1 renal, in the assay on CCRF-CEM leukemia, with K-562 leukemia, in the assay on KM12 colon and in the assay on MALME-3M melanoma was over 100 µM each time. Further, the TGI in the assay on NCI-H460 lung, in the assay on OVCAR-5 ovarian, in the assay with SF-295 CNS, with SF-539 CNS, in the assay on SK-MEL-2 melanoma and in the assay with U251 CNS was over 100 µM throughout. In the assay with UO-31 renal, this compound gave a TGI of over 100 µM.

Consider `N#Cc1c(Cl)cccc1Oc1ccc(S(=O)(=O)/N=C(\NN)Nc2ccc(Cl)cc2)cc1`, for which the TGI in the assay on 786-0 renal was 61.1 µM; in the assay on CAKI-1 renal, over 100 µM; in the assay with DU-145 prostate it was 86.9 µM; with K-562 leukemia, over 100 µM; in the assay on KM12 colon, 42.7 µM; in the assay on NCI-H460 lung, 43.7 µM. For the same compound, the TGI in the assay on NCI/ADR-RES ovarian is over 100 µM; with OVCAR-5 ovarian, 94.5 µM; in the assay with PC-3 prostate it was 80.8 µM; with RXF 393 renal, 47.1 µM; in the assay with SF-295 CNS it was 70.3 µM; with SF-539 CNS, 36.6 µM. Besides, the total growth inhibition concentration (TGI) is 46.5 µM with SK-MEL-2 melanoma; 64 µM in the assay on SN12C renal; 48.1 µM in the assay with T-47D breast; over 100 µM in the assay on U251 CNS; 91.5 µM with UO-31 renal.

Regarding `COC(=O)N1CCc2c(nc(N(C)CCO)[nH]c2=O)C1`, the TGI in the assay on 786-0 renal, in the assay with CAKI-1 renal, in the assay on CCRF-CEM leukemia, in the assay on K-562 leukemia, in the assay with KM12 colon and in the assay with MALME-3M melanoma was over 100 µM each time. For the same compound, the TGI with NCI-H460 lung, in the assay with OVCAR-5 ovarian, in the assay on RXF 393 renal, in the assay on SF-295 CNS, in the assay with SF-539 CNS and in the assay with SK-MEL-2 melanoma was over 100 µM each time. The TGI in the assay with SN12C renal, in the assay on U251 CNS and in the assay on UO-31 renal was over 100 µM throughout.
